According to patent US7109243B2 (IRM LLC, priority 2003, dated 2006):
Like-named read-outs stand apart in the source and are kept apart here.

Key:
Cathepsin S = Cathepsin S (Homo sapiens, UniProt P25774); assay: Cathepsin S inhibition assay (fluorogenic peptide substrate); type: biochemical
How it was run: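 Ki values come from nonlinear fitting of inhibited hydrolysis rates, taking free and total inhibitor concentrations as equal. Rates measured as rising fluorescence at 380/450 nm after reaction start with 50 μM final acetyl-HPVK-aminocarbamoylcoumarin.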

Cathepsin K = target: T1, Cathepsin K (Homo sapiens, UniProt P43235); assay: Cathepsin K inhibition assay (fluorogenic peptide substrate); selectivity ratio vs cathepsin S; type: biochemical; settings: for Ki: read-out: Ki (CatK)
T1 sequence (P43235 115-329): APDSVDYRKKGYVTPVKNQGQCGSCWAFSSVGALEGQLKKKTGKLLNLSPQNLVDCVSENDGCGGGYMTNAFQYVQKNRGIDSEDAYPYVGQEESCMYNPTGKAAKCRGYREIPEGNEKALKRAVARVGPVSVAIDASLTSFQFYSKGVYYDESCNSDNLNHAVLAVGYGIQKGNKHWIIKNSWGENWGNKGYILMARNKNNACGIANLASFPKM
How it was run: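 Fluorogenic kinetic assay, started with acetyl-Lys-His-Pro-Lys-aminocarbamoylcoumarin at 40 μM final, hydrolysis followed at ex 380/em 450 nm. Apparent inhibition constants from progress curves, converted to competitive inhibition constants. Selectivity expressed as isozyme inhibition constant divided by cathepsin S inhibition constant.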

[1] = Table II, compounds of Formula I, read-out: Ki Cat. S
[2] = ratio of cathepsin K inhibition constant to cathepsin S inhibition constant, Table II
[3] = comparison compounds in the art, read-out: Ki (CatS)
[4] = comparison compounds in the art, ratio Ki CatK / Ki CatS
[5] = comparison compounds in the art

Cathepsin S, sequence (P25774 115-331, species assumed): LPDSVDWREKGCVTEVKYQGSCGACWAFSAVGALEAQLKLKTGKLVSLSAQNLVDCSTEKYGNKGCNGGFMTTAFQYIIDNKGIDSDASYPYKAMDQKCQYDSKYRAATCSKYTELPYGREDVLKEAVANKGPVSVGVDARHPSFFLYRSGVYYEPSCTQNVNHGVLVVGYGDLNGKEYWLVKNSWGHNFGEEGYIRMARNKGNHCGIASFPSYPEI

Ki (Cathepsin S; [1]) | Selectivity for Cat. S over Cat. K (Cathepsin K; [2]) | Ki (Cathepsin S; [3]) | Selectivity for Cat. S over Cat. K (Cathepsin K; [4]) | Ki (Cathepsin K; [5]) | SMILES
< 1000 nM | ++ (++, >100) |  |  |  | COc1ccc(NCCNC(=O)[C@H](Cc2ccc(Oc3cccc(Cl)c3)cc2)NC(=O)c2cccc(C)c2)cc1 [Compound 329, (S)-N-{2-[4-(3-Chloro-phenoxy)-phenyl]-1-[2-(4-methoxy-phenylamino)-ethylcarbamoyl]-ethyl}-3-methyl-benzamide]
< 1000 nM | ++ (++, >100) |  |  |  | COc1ccc(NCCNC(=O)[C@H](Cc2ccc(Oc3cc(C)cc(C)c3)cc2)NC(=O)c2cccc(C)c2)cc1 [Compound 330, (S)-N-{2-[4-(3,5-Dimethyl-phenoxy)-phenyl]-1-[2-(4-methoxy-phenylamino)-ethylcarbamoyl]-ethyl}-3-methyl-benzamide]
 |  | < 1000 nM | <10 | < 100 nM | CC(C)C[C@H](NC(=O)OCc1ccccc1)C(=O)NCCNc1cccc2ccccc12 [reference compound]
 |  | < 100 nM | <10 | < 100 nM | COc1ccc(NCCNC(=O)[C@@H](CC(C)C)NC(=O)c2ccc(-c3ccccc3)cc2)cc1 [reference compound]
